The source made the active and inactive calls. Cut-off read from the data, not from the text of the source: actives have a measured IC50 and inactives only a lower limit.

In the assay the target is Envelope glycoprotein gp160 (Human immunodeficiency virus 1, UniProt Q6QLK5). Nature of the assay: inhibitors of HIV fusion peptide binding, primary screen, biochemical, uHTS, fluorescence dequenching (AID 1986).
Envelope glycoprotein gp160, sequence (Q6QLK5 whole entry, the tested form may be a part): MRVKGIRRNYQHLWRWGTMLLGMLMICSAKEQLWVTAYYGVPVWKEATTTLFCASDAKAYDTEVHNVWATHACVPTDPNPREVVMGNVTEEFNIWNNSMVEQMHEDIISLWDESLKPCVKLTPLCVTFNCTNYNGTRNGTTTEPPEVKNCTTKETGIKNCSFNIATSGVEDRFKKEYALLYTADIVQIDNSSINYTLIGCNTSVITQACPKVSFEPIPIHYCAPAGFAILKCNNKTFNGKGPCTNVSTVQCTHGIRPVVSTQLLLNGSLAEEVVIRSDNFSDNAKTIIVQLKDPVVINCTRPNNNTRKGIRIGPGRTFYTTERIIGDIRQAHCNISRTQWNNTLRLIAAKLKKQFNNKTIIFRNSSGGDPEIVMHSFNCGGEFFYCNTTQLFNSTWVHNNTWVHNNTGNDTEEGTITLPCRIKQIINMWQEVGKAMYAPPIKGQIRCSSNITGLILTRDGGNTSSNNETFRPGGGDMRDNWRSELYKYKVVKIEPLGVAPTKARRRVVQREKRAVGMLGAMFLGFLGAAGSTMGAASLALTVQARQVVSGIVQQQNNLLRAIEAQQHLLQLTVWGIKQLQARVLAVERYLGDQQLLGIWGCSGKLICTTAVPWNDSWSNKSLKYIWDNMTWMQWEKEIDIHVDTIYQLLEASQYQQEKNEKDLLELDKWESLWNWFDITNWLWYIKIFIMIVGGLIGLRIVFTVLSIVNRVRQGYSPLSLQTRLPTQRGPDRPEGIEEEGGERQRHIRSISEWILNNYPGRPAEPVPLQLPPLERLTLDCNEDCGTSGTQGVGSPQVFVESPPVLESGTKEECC
As a reminder, the IC50 is the concentration at which inhibition is half-maximal. In the case of `CSc1nc(SCC(=O)O)c2sc3nc(-c4ccccc4)c4c(c3c2n1)CCC4`, the IC50 was 16.2 µM (active).
In the case of `O=C1NN(c2ccc(F)c(Cl)c2)C(=O)/C1=C\c1cccc(OC(=O)c2cccs2)c1`, the IC50 is 7.72 µM (active).
Regarding `O=C(O)Cn1cc(/C=c2/sc3nc4ccccc4n3c2=O)c2ccccc21`, the IC50 was 68.9 µM (active).

Values taken from ChEMBL document CHEMBL1201862, “PubChem BioAssay data set” (2004).
